Entries after “also recorded” stand apart in the source; their conditions may differ. Structures can show the parent of a compound that is named as a salt. Where two headings read alike, the source gives them in different places.
Tests used:
[1] = Dish test: mice remaining in the dish for more than 3 minutes (tranquilization); format: in vivo; conditions: Mus musculus, ip
Method: Dish test: Mice in Petri dishes (10 cm. diameter, 5 cm. high, partially embedded in wood shavings), climb out in a very short time, when not treated. Mice remaining in the dish for more than 3 minutes indicates tranquilization.

[2] = test system: apomorphine hydrochloride; conditions: TABLE V
[3] = test system: yohimbine hydrochloride; test: in vivo; conditions: for YO (Yohimbine test): TABLE V; for ED50: Mus musculus, 2 h, read-out: ED50, yohimbine potentiation (causes 50% of the mice to die)
Method: (§1) Ten male CF mice, 18-22 g., were injected with the anti-depressant and 30 minutes later with 30 […] hydrochloride (YCl) in saline solution. After two hours, the LD50 were determined.

[4] = LD50 values in mice; conditions: mouse, in vivo
[5] = Chimney test: ability of mice to back up and out of a vertical glass cylinder within 30 seconds; format: in vivo; conditions: Mus musculus, ip
Excerpt: The test determines the ability of mice to back up and out of a vertical glass cylinder within 30 seconds. At the effective dosage, 50% of the mice failed doing it.

[6] = test system: oxotremorine; test: animal or person; format: in vivo, mice (male, Strain CF=Carworth Farms); conditions: for Oxo (Oxotremorine test): TABLE V; for ED50: Mus musculus, ip, 0.5 h, read-out: ED50, oxotremorine hypothermia antagonism (temperature at least 4° C. higher than control mice)
Method: Hypothermic tests with oxotremorine: [1-(4-pyrrolidino-2-butynyl)-2-pyrrolidinone].
The present compounds were tested as follows. […] The lowering of the body temperature was measured rectally with an electronic thermometer, before and 30 minutes after drug administration. After the drug administration the mice were kept at 19° C. in cages. A 4° difference between the control mice (oxotremorine alone) and the treated mice (oxotremorine and test compound) was used to indicate the antagonistic action of the test compound.

[7] = test system: nicotine salicylate; test: animal or person; format: in vivo, mice; conditions: for ED50: Mus musculus, ip
Method: Nicotine antagonism test: Mice in a group of 6 are injected with the test compound, 8-chloro-1-[(dimethylamino)methyl]-6-phenyl-4H-s-triazolo[4,3-a][1,4]benzodiazepine. Thirty minutes later the mice, including control (untreated) mice, are injected with nicotine salicylate (2 mg./kg.). The control mice show overstimulation, i.e., (1) running convulsions (2) tonic extensor fits; followed by (3) death.

[8] = Pedestal test: tranquilized mice stay on the pedestal for more than 1 minute; format: in vivo; conditions: Mus musculus, ip
Method: Pedestal Test: The untreated mouse leaves the pedestal in less than a minute to climb back to the floor of the standard mouse box. Tranquilized mice will stay on the pedestal for more than 1 minute. The ED50 (intraperitoneal administration) was 0.8 mg./kg.

[9] = test system: apomorphine hydrochloride; test: animal or person; conditions: Mus musculus, ip, 0.5 h, read-out: ED50, potentiation of apomorphine gnawing
[10] = test system: strychnine sulfate; test: animal or person; format: in vivo, mice
Method: The test consists in orally administering into groups of 6 mice the test compound, and 30 minutes later 3 mg./kg. strychnine sulfate intraperitoneally. The survivors after 4 hours reflect the activity of the compound as a muscle relaxant and antispasmodic.

[11] = test system: oxotremorine; conditions: cited from earlier work; for effect on oxotremorine-induced temperature decrease / hypothermic response / hypothermic response: mice, background statement
[12] = in vivo; conditions: mouse, in vivo, ip
Method: as §1

[13] = mice, route not given, TABLE IV

## CN(C)Cc1nnc2n1-c1ccccc1C(c1ccccc1Cl)=NC2 [1-[(dimethylamino)methyl]-6-(o-chlorophenyl)-4H-s-triazolo-[4,3-a][1,4]benzodiazepine]
[1]; read-out: ED50 D
  ED50: 0.8 mg/kg
[2]
  Ap (Apomorphine test): > 30
[3]
  YO (Yohimbine test): > 30
[4]; TABLE V
  LD50: > 100 mg/kg
[5]; read-out: ED50 Ch
  ED50: 0.35 mg/kg
[6]
  Oxo (Oxotremorine test): > 30
[7]; read-out: ED50 Ni
  ED50: 0.15 mg/kg
[8]; read-out: ED50 P
  ED50: 22 mg/kg

## NCc1nnc2n1-c1ccc(Cl)cc1C(c1ccccc1)=NC2 [8-Chloro-1-(aminomethyl)-6-phenyl-4H-s-triazolo[4,3-a][1,4]benzodiazepine]
[2]
  Ap (Apomorphine test): 2.6
[3]
  YO (Yohimbine test): 35.4
[4]; TABLE V
  LD50: > 100 mg/kg
[6]
  Oxo (Oxotremorine test): 29.7

## CCN(CC)Cc1nnc2n1-c1ccc(Cl)cc1C(c1ccccc1Cl)=NC2 [8-Chloro-1-[(diethylamino)methyl]-6-(o-chlorophenyl)-4H-s-triazolo[4,3-a][1,4]benzodiazepine]
[1]; read-out: ED50 D
  ED50: 0.11 mg/kg
[5]; read-out: ED50 Ch
  ED50: 0.63 mg/kg
[7]; read-out: ED50 Ni
  ED50: 0.08 mg/kg
[8]; read-out: ED50 P
  ED50: 0.4 mg/kg

## CCN(CC)Cc1nnc2n1-c1ccc(Cl)cc1C(c1ccccc1)=NC2 [8-Chloro-1-[(diethylamino)methyl]-6-phenyl-4H-s-triazolo[4,3-a][1,4]benzodiazepine]
[3]
  ED50: 42 mg/kg
[4]; [13]
  LD50: > 100 mg/kg
[9]
  ED50: 14.9 mg/kg
[6]; mice, oxotremorine 1 mg. i.p., 30 minutes, second TABLE I
  ED50: 50 mg/kg

## CN(C)Cc1nnc2n1-c1ccc(Cl)cc1C(c1ccccc1Cl)=NC2 [8-Chloro-1-[(dimethylamino)methyl]-6-(o-chlorophenyl)-4H-s-triazolo[4,3-a][1,4]benzodiazepine]
[1]; read-out: ED50 D
  ED50: 0.36 mg/kg
[2]
  Ap (Apomorphine test): 17.8
[3]
  YO (Yohimbine test): > 30
[4]; TABLE V
  LD50: > 100 mg/kg
[5]; read-out: ED50 Ch
  ED50: 0.2 mg/kg
[6]
  Oxo (Oxotremorine test): > 30
[7]; read-out: ED50 Ni
  ED50: 0.63 mg/kg
[8]; read-out: ED50 P
  ED50: 0.36 mg/kg

## CN(C)Cc1nnc2n1-c1ccc(Cl)cc1C(c1ccccc1)=NC2 [8-Chloro-1-[(dimethylamino)methyl]-6-phenyl-4H-s-triazolo[4,3-a][1,4]benzodiazepine]
[1]; read-out: ED50, dish test
  ED50: 0.28 mg/kg
[3]
  ED50: 12.5 mg/kg
[4]; [13]
  LD50: 476 mg/kg
[5]; read-out: effective intraperitoneal dosage for 50% of mice (ED50), chimney test
  ED50: 2.3 mg/kg
[9]
  ED50: 5.3 mg/kg
[10]; Mus musculus, po, 4 h, read-out: effective dosage ED50, antagonism to strychnine
  ED50: 50 mg/kg
[6]
  ED50: 5.3 mg/kg
[7]; read-out: dosage protecting 50% of the animals against death (nicotine antagonism)
  ED50: 0.11 mg/kg
[8]; read-out: ED50, pedestal test
  ED50: 0.8 mg/kg

## CN(C)CCC=C1c2ccccc2COc2ccccc21 [Doxepine, reference compound]
[3]
  ED50: 17.7 mg/kg
[4]; [13]
  LD50: 126 mg/kg
[9]
  ED50: 17.7 mg/kg
[11]
  effect on oxotremorine-induced temperature decrease / hypothermic response: antagonized
[6]
  ED50: 14.9 mg/kg

## CN(C)CCCN1c2ccccc2CCc2ccccc21 [Imipramine, reference compound]
[3]
  ED50: 4.4 mg/kg
[9]
  ED50: 17.7 mg/kg
[6]
  ED50: 5.3 mg/kg

## O=C1CCCN1CC#CCN1CCCC1 [Oxotremorine, 1-(4-pyrrolidino-2-butynyl)-2-pyrrolidinone]
[11]; 0.6 mg./kg. oxotremorine, mouse kept at room temperature
  decrease of body temperature: about 13 ° F.
[11]
  hypothermic response: produces hypothermic responses in mice; also recorded: very pronounced hypothermia

## CN1CCc2cccc3c2[C@H]1Cc1ccc(O)c(O)c1-3 [apomorphine]
[11]
  hypothermic response: produces hypothermic responses in mice

## CN1[C@@H]2CC[C@H]1C[C@@H](OC(=O)C(CO)c1ccccc1)C2 (stereo partly shown) [atropine]
[11]
  effect on oxotremorine-induced temperature decrease / hypothermic response: blocked

## CNCCCN1c2ccccc2CCc2ccccc21 [desipramine]
[11]
  effect on oxotremorine-induced temperature decrease / hypothermic response: antagonized

## CN1CCC[C@H]1c1cccnc1 [nicotine salicylate, reference compound]
[7]; 2 mg./kg., injected
  effect of nicotine salicylate in control mice: overstimulation

## O=C1C[C@@H]2OCC=C3CN4CC[C@]56c7ccccc7N1[C@H]5[C@H]2[C@H]3C[C@H]46 [strychnine sulfate, reference compound]
[10]; 3 mg./kg. intraperitoneally
  lethality of strychnine sulfate in control mice: routinely fatal to all the control mice

## COc1cc2c(cc1OC)C1CC(=O)C(CC(C)C)CN1CC2 (stereo not shown) [tetrabenazine]
[11]
  hypothermic response: produces hypothermic responses in mice

## COC(=O)[C@@H]1[C@H]2C[C@H]3c4[nH]c5ccccc5c4CCN3C[C@@H]2CC[C@@H]1O [yohimbine hydrochloride]
[12]
  LD50: 45 mg/kg
[3]; 30 mg./kg. (30 mg.), mice
  lethality of yohimbine hydrochloride alone: non-lethal

— US3947466A, “Intermediates and process for the production of certain triazolobenzodiazepines” (priority 1974, dated 1976)
